The values that follow come from patent publication US11331376B2, “Oral administration of unstable or poorly-absorbed drugs” (InnoPharmax, Inc., priority 2014, dated 2022).

The subject of data set [1] is STZ-induced diabetic mice. In words: In vivo hypoglycemic study, blood glucose after oral gavage in STZ-induced diabetic mice. Details: species or system male C57BL/6JNarl mice. The method, then: Diabetes was induced in male C57BL/6JNarl mice (8 weeks age, around 20 grams body weight) by two tail vein injections of streptozotocin (STZ) (first: 75 mg/kg, second: 150 mg/kg). Induction of diabetes in mice was verified by measuring glucose concentration in a blood sample that was obtained from the tail vein. […] An composition containing 200 IU/kg of insulin was administered by oral gavage to each of eight STZ-induced diabetic mice in three groups (i.e., 24 mice total). A first group each received free non-modified insulin suspended in about 160-230 microliters (depending on animal weight) of a 3.78% (w/w) NaHCO3 antacid solution. A second group each received insulin in the form of Formulation 1 suspended in about 160-230 microliters of phosphate-buffered saline (PBS). A third group received Formulation 1 insulin in the form of Formulation 1 suspended in about 160-230 microliters of a 3.78% (w/w) NaHCO3 antacid solution (i.e., a ten-fold dilution of Formulation 1). […] Blood samples were drawn from each mouse following gavage, and blood glucose levels in those samples were determined. […] Drug remaining in the formulation was analyzed, and in vivo potency was also assessed by administering insulin formulation into streptozotocin-induced diabetic mice and measuring blood glucose with a glucometer.

For data set [2], the system named is Caco-2 cell monolayers.
Procedure: Caco-2 cells were cultured at 37±2 degrees Celsius in minimum essential medium (MEM) with Eagles salt and 1-glutamine supplemented with 15% fetal bovine serum, with 1% of non-essential amino acid, and with 1% of antibiotic-antimycotic in a incubator under a 5% carbon dioxide atmosphere to simulate intestinal lining cells.
At time zero, medium on one face of the cell monolayer was replaced by 0.5 milliliter of a solution that included one of Formulation 1, 2, or 3 or of insulin not incorporated into a SMEDDS-containing formulation. The solution was diluted ten-fold with medium (i.e., one part insulin-containing solution and nine parts buffer) prior to application to the monolayer. Thirty minutes following this replacement, insulin content at the basolateral face of the monolayer was analyzed by HPLC. The permeability coefficient (Papp) was calculated from the following equation: Papp=(dQ/dt)/(C0×area), where dQ/dt is the linear appearance rate obtained from the profile of the transported amount of the substrate against the time (measured in micrograms per second); C0 is a measured initial concentration in the donor compartment (measured in micrograms per milliliter), and “area” is the membrane surface area of the cell monolayer.

On to “free insulin: non-modified human insulin not combined with a SMEDDS-containing composition”, for which the “blood glucose levels at any time point” value in data set [1] (200 IU/kg free insulin solution by oral gavage) is given as “No significant differences in the blood glucose levels”. Besides, in data set [1] (200 IU/kg oral gavage, free insulin in 3.78% NaHCO3 antacid solution), the “blood glucose levels over study period” value was “did not vary significantly”. The “trans-monolayer transport of insulin” value in data set [2] is reported as “No trans-monolayer transport”.
